This is an account of results in PubChem BioAssay AID1996.

In brackets after ≈: the same amount, converted by molar mass. Bounds are passed on as bounds.

The conditions of this series: buffer; pH 7.4; 200.0 µM.
Regarding `COC(=O)c1ccc(NC(=S)N2CCN(CCO)CC2)cc1`, the solubility (kinetic) (in general, the concentration staying in solution when a stock, usually in DMSO, is diluted into the medium) is greater than 48.5 µg/mL.

`COCCSc1ccccc1C(=O)Nc1cc(C)cc(C)c1` had a solubility (kinetic) of 41.2 µg/mL (≈ 131 µM).

As to `Cc1ccc(Cl)cc1NC(=O)CN1CCOCC1`, the solubility (kinetic) is greater than 40.3 µg/mL.

`Cc1ccc(S(N)(=O)=O)cc1NC(=O)c1ccc2c3c(cccc13)CC2`: the kinetic solubility stood at 3.1 µg/mL (≈ 8.46 µM).

`COCCNc1c(-c2ccc(OC)cc2)nc2ccc(Cl)cn12` displayed a solubility (kinetic) of 38.4 µg/mL (≈ 116 µM).

As to `CCN(CC)S(=O)(=O)c1cc(NC(=S)NC(=O)C2CCCC2)ccc1C`, the kinetic solubility came out at 6.1 µg/mL (≈ 15.3 µM).

`CC(=O)c1ccc(NC(=O)c2onc(C)c2Cl)cc1` came in with a solubility (kinetic) of 6.8 µg/mL (≈ 24.4 µM).

The compound `COCCCN1C(=O)CS/C1=N\S(=O)(=O)c1ccccc1` registered a kinetic solubility greater than 49.3 µg/mL.

The compound `N#Cc1cn(N2CCCCC2)c(=O)[nH]c1=O` registered a solubility (kinetic) greater than 33 µg/mL.

In turn, `COC(=O)c1cccc(NS(C)(=O)=O)c1` displayed a kinetic solubility greater than 34.4 µg/mL.

`CCCCn1c(=N)n(CC(O)c2ccccc2)c2ccccc21.Cl` (stereo unspecified) showed a kinetic solubility greater than 51.9 µg/mL.

Turning to `Cc1noc(C)c1CSCC(=O)Nc1ccc(C#N)c(Cl)c1`, the kinetic solubility was greater than 50.4 µg/mL.

As for `Cc1ncc(CN2CCCC(C(=O)c3cccc(Cl)c3)C2)s1` (stereo unspecified), the kinetic solubility amounted to 43.2 µg/mL (≈ 129 µM).

In turn, `Cc1ccc2c(c1)N(CC(=O)NC1CCCC1)C(=O)CO2` returned a kinetic solubility greater than 43.3 µg/mL.

The compound `O=C(Cc1c(F)cccc1Cl)NC1CCN(Cc2ccccc2)CC1` displayed a kinetic solubility of 50.5 µg/mL (≈ 140 µM).

As to `COc1ccc(Cc2nc(-c3cccnc3)no2)cc1OC`, the kinetic solubility is 41 µg/mL (≈ 138 µM).

In the case of `CC[C@H](C)[C@H](NC(N)=O)C(=O)NCCc1ccc(Cl)cc1`, the solubility (kinetic) was greater than 46.8 µg/mL.

`Cc1cc(/C(N)=N/OC(=O)c2cccc(Cl)c2)no1` gave a solubility (kinetic) of 2.2 µg/mL (≈ 7.87 µM).

With `Cc1ccc(S(C)(=O)=NC(=O)c2cc(C)on2)cc1` (stereo unspecified), the kinetic solubility is 41.5 µg/mL (≈ 149 µM).

`O=C(/C=C/c1ccco1)N(Cc1ccccc1)C1CCS(=O)(=O)C1` (stereo unspecified): the kinetic solubility was determined as 47.1 µg/mL (≈ 136 µM).

Regarding `O=C1c2ccccc2-c2ccc(C(=O)N3CCCCC3)cc21`, the kinetic solubility worked out at 19 µg/mL (≈ 65.2 µM).

Take `CNC(=O)CCc1ccc(OC)cc1`: the kinetic solubility is greater than 29 µg/mL.

In turn, `N#Cc1cccc(NC(=O)CSc2n[nH]c(=O)[nH]c2=O)c1` showed a kinetic solubility greater than 45.5 µg/mL.

As to `O=C(Cc1c(F)cccc1Cl)Nc1ncc([N+](=O)[O-])s1`, the solubility (kinetic) was 16.7 µg/mL (≈ 52.9 µM).

Regarding `O=C(NCCc1ccc(C(F)(F)F)cc1)c1ccc(Cl)nc1`, the solubility (kinetic) was 6.6 µg/mL (≈ 20.1 µM).

Turning to `NS(=O)(=O)c1ccc(N=Cc2c(O)c3ccccc3oc2=O)cc1`, the solubility (kinetic) was 19.9 µg/mL (≈ 57.8 µM).

`COc1ccc(C2C(C(C)=O)=C(O)C(=O)N2c2ccc(O)cc2)cc1` (stereo unspecified) returned a kinetic solubility greater than 50.9 µg/mL.

Regarding `Nc1ccc2nc(COc3ccccc3)[nH]c2c1`, the solubility (kinetic) was found to be 12.4 µg/mL (≈ 51.8 µM).

On to `CC(Sc1ccccc1)C(=O)NCCc1ccccc1` (stereo unspecified), for which the kinetic solubility was greater than 42.8 µg/mL.

Consider `CCCSc1ccc2nc(NC(=O)OC)[nH]c2c1`, for which the solubility (kinetic) was 1.4 µg/mL (≈ 5.28 µM).

In the case of `Cc1ccc(NC(=O)CCC2CC(C)(C)OC2=O)cc1` (stereo unspecified), the kinetic solubility was greater than 41.3 µg/mL.

As to `CC(C)(C)NC(=O)NC(=O)CSc1ncccn1`, the kinetic solubility was greater than 40.2 µg/mL.

For `CC(C)Oc1nc(-c2ccccc2Cl)nc2ccccc12`, the kinetic solubility turned out to be 0.4 µg/mL (≈ 1.34 µM).

Compound `CCC(=O)Nc1ccc(-c2ccc(N3CCN(C)CC3)nn2)cc1` yielded a solubility (kinetic) greater than 48.8 µg/mL.

The compound `Cc1onc(-c2ccccc2Cl)c1C(=O)N(C)Cc1ccccc1` had a kinetic solubility greater than 51.1 µg/mL.

The compound `O=S(=O)(NCc1nc2ccccc2[nH]1)c1ccccc1` had a kinetic solubility greater than 43.1 µg/mL.

In turn, `CCCCN(C(=O)CN(C)CC(=O)Nc1cccc(OC)c1)c1c(N)n(CCCC)c(=O)[nH]c1=O` returned a solubility (kinetic) greater than 73.3 µg/mL.

`O=C(OCC(=O)c1cccs1)c1ccc([N+](=O)[O-])o1` came in with a kinetic solubility of 16.4 µg/mL (≈ 58.3 µM).

In turn, `COc1cccc(NC(=S)N(CCN(C)C)Cc2cccs2)c1` displayed a solubility (kinetic) of 41.6 µg/mL (≈ 119 µM).

Compound `CC(=O)Nc1ccc(NC(=O)Nc2cc(C)cc(C)c2)cc1` displayed a kinetic solubility of 0.8 µg/mL (≈ 2.69 µM).

For the compound `COc1cc(OC)cc(C(=O)NCCSCc2ccc(Cl)cc2)c1`, the kinetic solubility was 5.2 µg/mL (≈ 14.2 µM).

Turning to `COc1ccc(C(CC(=O)O)N2Cc3ccccc3C2=O)cc1` (stereo unspecified), the kinetic solubility was greater than 46.7 µg/mL.

Regarding `COc1ccc(NC(=O)CS(=O)(=O)c2ccccc2)cc1`, the kinetic solubility is greater than 45.8 µg/mL.

Consider `Cc1ccc(S(=O)(=O)N(C)CC(=O)NCCCn2ccnc2)cc1`, for which the solubility (kinetic) came out at 48.6 µg/mL (≈ 139 µM).

Turning to `Cc1csc(SCC(=O)Nc2ccccc2)n1`, the kinetic solubility came out at 35.5 µg/mL (≈ 134 µM).

Compound `Cc1sc2ncnc(NC(C)C(=O)O)c2c1C` (stereo unspecified) gave a kinetic solubility greater than 37.7 µg/mL.

`Cc1cc(NC(=O)NCC(F)(F)F)no1` showed a solubility (kinetic) greater than 33.5 µg/mL.

`COc1ccc(OC)c(CNC(=O)c2coc(=O)c3ccccc23)c1`: the kinetic solubility was greater than 50.9 µg/mL.

For the compound `CN(C(=O)CSc1cc(Cl)ccc1Cl)C1CCS(=O)(=O)C1` (stereo unspecified), the kinetic solubility stood at 53.7 µg/mL (≈ 146 µM).

For the compound `Cc1cccc(-c2nc(Nc3ccc(O)cc3)c3ccccc3n2)c1`, the solubility (kinetic) is 5.8 µg/mL (≈ 17.7 µM).

In the case of `Cc1csc(NC(=O)CN2C(=O)c3ccccc3C2=O)c1C(N)=O`, the kinetic solubility is 13 µg/mL (≈ 37.9 µM).
